In patent publication US20130231347A1, “METHOD OF TREATMENT WITH BRAF INHIBITOR” (GLAXOSMITHKLINE INTELLECTUAL PROPERTY (NO.2) LIMITED, priority 2010, published 2013):
Read-outs that look alike come from different tables or passages of the source.

Tests used:
[1] = test system: 12R5-1 (A375 F11 clone with acquired resistance to Compound A); test: Cell growth inhibition assay (Cell Titer Glo, 3 days); type: cell-based; conditions: Homo sapiens, A-375, 72 h, MEK1 HET 59delK, single agent
Method: (§1) A clonal isolate, hereinafter referred to as “A375 F11”, was obtained from the A375 cell line (obtained from ATCC), based on increased sensitivity to a BRAF inhibitor. A375 F11 cells were exposed to increasing concentrations of Compound A and maintained in a final concentration of 1.26 μM or 1.6 μM. 12R5-3, 12R8-1, 12R8-3, 16R5-5, 16R6-2, 16R6-3 and 16R6-4 were derived as single cell clones from mixed populations of these A375 F11 cells selected to grow in the presence of Compound A. All cells were grown in RPMI 1640 medium containing 10% Fetal Bovine Serum (FBS).
(§2) All cells were cultured without compound, e.g. Compound A, for a minimum of 72 hours prior to cell plating. Cells were assayed in a 96-well tissue culture plate (NUNC 136102) of RPMI medium containing 10% FBS for all cells at 1,000 cells per well. Approximately 24 hours after plating, cells were exposed to ten, three-fold serial dilutions of compound or the combination of the two agents at a constant molar to molar ratio, e.g. 10:1 Compound A to Compound B, in RPMI media containing 10% FBS. Cells were incubated in the presence of compounds for 3 days. ATP levels were determined by adding Cell Titer Glo® (Promega) according to the manufacturer's protocol. Briefly, Cell Titer Glo® was added each plate, incubated for 30 minutes then luminescent signal was read on the SpectraMax L plate reader with a 0.5 sec integration time. Inhibition of cell growth was estimated after treatment with compound or combination of compounds for three days and comparing the Cell Titer Glo® signal to cells treated with vehicle (DMSO). Cell growth was calculated relative to vehicle (DMSO) treated control wells.
(§3) For single agent and combination treatments, cells were exposed to compounds at a fixed-dose-ratio, and dose response curves were fit to the experimental data and analyzed using regression models.

[2] = test system: 16R6-2 (A375 F11 clone with acquired resistance to Compound A); test: as above; type: cell-based; conditions: Homo sapiens, A-375, 72 h, MEK1 P387P/S, single agent
Method: as §1, §2, §3

[3] = test system: 16R6-3 (A375 F11 clone with acquired resistance to Compound A); test: as above; type: cell-based; conditions: Homo sapiens, A-375, 72 h, MEK1 P387P/S, single agent
Method: as §1, §2, §3

[4] = test system: 12R5-5 (A375 F11 clone with acquired resistance to Compound A); test: as above; type: cell-based; conditions: Homo sapiens, A-375, 72 h, MEK1 HET 59delK, single agent
Method: as §1, §2, §3

[5] = test system: 16R5-5 (A375 F11 clone with acquired resistance to Compound A); test: as above; type: cell-based; conditions: Homo sapiens, A-375, 72 h, MEK1 P387P/S, single agent
Method: as §1, §2, §3

[6] = test system: A375 F11 clones that acquired resistance to Compound A; test: Cell growth inhibition assay, resistant A375 clones taken together; conditions: Homo sapiens
Method: as §1, §2, §3

[7] = test system: 16R6-4 (A375 F11 clone with acquired resistance to Compound A); test: Cell growth inhibition assay (Cell Titer Glo, 3 days); type: cell-based; conditions: Homo sapiens, A-375, 72 h, A146A/T, MEK1 P387P/S, single agent
Method: as §1, §2, §3

[8] = test system: 12R8-3 (A375 F11 clone with acquired resistance to Compound A); test: as above; type: cell-based; conditions: Homo sapiens, A-375, 72 h, MEK1 WT, single agent
Method: as §1, §2, §3

[9] = test system: 12R8-1 (A375 F11 clone with acquired resistance to Compound A); test: as above; type: cell-based; conditions: Homo sapiens, A-375, 72 h, MEK1 WT, single agent
Method: as §1, §2, §3

[10] = test system: 12R5-3 (A375 F11 clone with acquired resistance to Compound A); test: as above; type: cell-based; conditions: Homo sapiens, A-375, 72 h, MEK1 WT, single agent
Method: as §1, §2, §3

[11] = test system: YUSIT1 clones that acquired resistance to Compound A (BRAF V600K); test: Cell growth inhibition assay, resistant YUSIT1 clones; type: cell-based, human; conditions: YUSIT1 clones resistant to Compound A
Excerpt: The YUSIT1 melanoma cells were obtained from Yale Dermatology Cell Culture Facility.

A375 F11 cells = test: Cell growth inhibition assay (Cell Titer Glo, 3 days); type: cell-based; conditions: Homo sapiens, 72 h, MEK1 WT, single agent
Method: as §1, §2, §3

[12] = test system: 12R9 (A375 F11 line with acquired resistance to Compound A); test: as above; type: cell-based; conditions: Homo sapiens, A-375, 72 h, Table 3, 12R9: NRAS Q61Q/R, MEK1 ND, single agent
Method: as §1
All cells were cultured without compound, e.g. Compound A, for a minimum of 72 hours prior to cell plating. Cells were assayed in a 96-well tissue culture plate (NUNC 136102) of RPMI medium containing 10% FBS for all cells at 1,000 cells per well. […] ATP levels were determined by adding Cell Titer Glo® (Promega) according to the manufacturer's protocol. Briefly, Cell Titer Glo® was added each plate, incubated for 30 minutes then luminescent signal was read on the SpectraMax L plate reader with a 0.5 sec integration time. […] Cell growth was calculated relative to vehicle (DMSO) treated control wells.
as §3

CC(=O)Nc1cccc(-n2c(=O)n(C3CC3)c(=O)c3c(Nc4ccc(I)cc4F)n(C)c(=O)c(C)c32)c1 [Compound B, N-{3-[3-cyclopropyl-5-(2-fluoro-4-iodo-phenylamino)-6,8-dimethyl-2,4,7-trioxo-3,4,6,7-tetrahydro-2H-pyrido[4,3-d]pyrimidin-1-yl]phenyl}acetamide]
IC50 ([1]; 12R5-1: NRAS WT, read-out: IC50, Single Agent Effect, Compound B): > 1000 nM | IC50 ([1]; Table 3, 12R5-1: NRAS WT, read-out: IC50, Single Agent, Compound B): > 1000 nM | IC50 ([2]; 16R6-2: NRAS Q61Q/K, read-out: IC50, Single Agent Effect, Compound B): 99 ± 58 nM | IC50 ([2]; Table 3, 16R6-2: NRAS Q61Q/K, read-out: IC50, Single Agent, Compound B): 339 ± 366 nM | IC50 ([3]; 16R6-3: NRAS A146A/T, read-out: IC50, Single Agent Effect, Compound B): 162 ± 67 nM | IC50 ([3]; Table 3, 16R6-3: NRAS A146A/T, read-out: IC50, Single Agent, Compound B): 137 ± 77 nM | IC50 ([4]; 12R5-5: NRAS WT, read-out: IC50, Single Agent Effect, Compound B): > 1000 nM | IC50 ([4]; Table 3, 12R5-5: NRAS WT, read-out: IC50, Single Agent, Compound B): 315 ± 212 nM | IC50 ([5]; 16R5-5: NRAS Q61Q/K, read-out: IC50, Single Agent Effect, Compound B): 129 ± 54 nM | IC50 ([5]; Table 3, 16R5-5: NRAS Q61Q/K, read-out: IC50, Single Agent, Compound B): 97 nM | IC50 ([6]; A-375, read-out: IC50 of the combination, for Compound B): 18 to 39 nM | IC50 ([7]; 16R6-4: NRAS Q61Q/K, read-out: IC50, Single Agent Effect, Compound B): > 1000 nM | IC50 ([7]; Table 3, 16R6-4: NRAS Q61Q/K, read-out: IC50, Single Agent, Compound B): 475 ± 587 nM | IC50 ([8]; 12R8-3: NRAS A146A/T, read-out: IC50, Single Agent Effect, Compound B): 59 ± 37 nM | IC50 ([8]; Table 3, 12R8-3: NRAS A146A/T, n = 1, read-out: IC50, Single Agent, Compound B): 84 nM | IC50 ([9]; 12R8-1: NRAS A146A/T, read-out: IC50, Single Agent Effect, Compound B): 81 ± 31 nM | IC50 ([9]; Table 3, 12R8-1: NRAS A146A/T, read-out: IC50, Single Agent, Compound B): 56 ± 39 nM | IC50 ([10]; 12R5-3: NRAS A146A/T, read-out: IC50, Single Agent Effect, Compound B): 78 ± 29 nM | IC50 ([10]; Table 3, 12R5-3: NRAS A146A/T, read-out: IC50, Single Agent, Compound B): 132 ± 54 nM | IC50 ([11]; Homo sapiens, single agent, read-out: IC50, cell growth inhibition): 2 to 5 nM | reduced sensitivity compared to the parental YUSIT1 cells ([11]; single agent (FIG. 9)): 3-7 fold | IC50 (A375 F11 cells; F11: NRAS WT, mean ± std, read-out: IC50, Single Agent Effect, Compound B): 2 ± 2 nM | IC50 (A375 F11 cells; Table 3, F11: NRAS WT, read-out: IC50, Single Agent, Compound B): 6 ± 4 nM | IC50 ([12]; n = 1, read-out: IC50, Single Agent, Compound B): 24 nM

COc1ncc(-c2ccc3nccc(-c4ccnnc4)c3c2)cc1NS(=O)(=O)c1ccc(F)cc1F [Compound C, 2,4-difluoro-N-{2-(methyloxy)-5-[4-(4-pyridazinyl)-6-quinolinyl]-3-pyridinyl}benzenesulfonamide]
IC50 ([1]; Table 3, 12R5-1: NRAS WT, read-out: IC50, Single Agent, Compound C): 155 ± 130 nM | IC50 ([2]; Table 3, 16R6-2: NRAS Q61Q/K, read-out: IC50, Single Agent, Compound C): 111 ± 87 nM | IC50 ([3]; Table 3, 16R6-3: NRAS A146A/T, read-out: IC50, Single Agent, Compound C): 162 ± 99 nM | IC50 ([4]; Table 3, 12R5-5: NRAS WT, read-out: IC50, Single Agent, Compound C): 87 ± 1 nM | IC50 ([5]; Table 3, 16R5-5: NRAS Q61Q/K, read-out: IC50, Single Agent, Compound C): 91 ± 36 nM | IC50 ([7]; Table 3, 16R6-4: NRAS Q61Q/K, read-out: IC50, Single Agent, Compound C): 213 ± 169 nM | IC50 ([8]; Table 3, 12R8-3: NRAS A146A/T, n = 1, read-out: IC50, Single Agent, Compound C): 375 nM | IC50 ([9]; Table 3, 12R8-1: NRAS A146A/T, read-out: IC50, Single Agent, Compound C): 145 ± 47 nM | IC50 ([10]; Table 3, 12R5-3: NRAS A146A/T, read-out: IC50, Single Agent, Compound C): 159 ± 140 nM | IC50 (A375 F11 cells; Table 3, F11: NRAS WT, read-out: IC50, Single Agent, Compound C): 98 ± 58 nM | IC50 ([12]; n = 1, read-out: IC50, Single Agent, Compound C): 57 nM

CCCS(=O)(=O)Nc1ccc(F)c(C(=O)c2c[nH]c3ncc(-c4ccc(Cl)cc4)cc23)c1F [PLX4032, reference compound]
IC50 ([6]; A-375, read-out: IC50, cell growth): > 10000 nM
